PMC10198994 (Scientific Reports, 2023)
Counter-ions that a name gives are not always drawn. Like-named read-outs stand apart in the source and are kept apart here. Marks after values point to notes of the source that are not given here.

Columns and labels:
[1] = Static equilibrium solubility of HCQS in supercritical carbon dioxide (UV-vis spectrophotometer); assay type: physicochemical; settings: for solubility thermodynamic at 1 h: thermodynamic from solid, read-out: Equilibrium solubility, S
Description: SCF-solubility of the drugs was experimentally measured via two broad classes of saturated solution-based methods, where solubility measurement can be done either (1) statically or (2) dynamically. […] The solubilities were measured with the help of an equilibrium cell. Thermodynamically, the method employed may be regarded as an isobaric-isothermal method. All the measurements are taken by keeping system temperatures and pressures at the desired value with high precision (i.e., ± 0.1 K and ± 0.1 MPa). Complete details about the equipment and measurement procedures are presented elsewhere[15]–[35]. However, the description of the equipment and the methodology employed in establishing solubility data are briefly presented in this section. The scCO2 is pumped to the equilibrium cell and drug sample and scCO2 are thoroughly mixed and allowed to attain equilibrium. […] To ensure equilibrium solubility, the experiments are performed with fresh samples at various time intervals. […] For each sampling a 600 µL volume saturated sample is collected via a collection valve in a deionized water preloaded sample vial. After discharging of each sample, the sampling valve was cleaned with 1 ml of deionized water. Drug sample solubility is estimated with the following formula:1 y2=ndrug/ndrug+nCO2 where y2 is solubility of the drug in scCO2, ndrug and nCO2 are number of moles of the drug and CO2 in the sampling loop, respectively.
The following formulas are used in data conversion2 ndrug=Cs·Vs/Ms 3 nCO2=V1ρ1/MCO2 where Cs is concentration of the drug in g/L. V1 = 600 × 10^–6 L and Vs = 5 × 10^–3 L are sampling loop and vial volumes, respectively. Ms and MCO2 are drug and CO2 molecular weights, respectively. ρ1 is density of scCO2 at each experimental condition, as presented in Table 2.
Solubility is also described as4 S=CSVs/V1
The solubility and mole fraction relation is described as5 S=ρMs/MCO2y2/1-y2

[2] = Total, sublimation and solvation enthalpies of HCQS in scCO2 from Chrastil, reformulated Chrastil and Bartle et al. model constants; assay type: physicochemical
Description: In the year 1981, Josef Chrastil presented a model for the solubility of solids/liquids in SCF. The main basis of the model is a solvate complex formulation based on a simple reaction. According to Chrastil, solubility is explained by c2=c2(κ,ρ1,T) , where κ is association number, ρ1 is solvent density (scCO2) and T is temperature. Chrastil proposed Eq. (19)19 c2=ρ1κexpA1+B1/T
In the year 2009, Garlpati and Madras has reformulated Chrastil's model and it is expressed by Eq. (21), where solubility is explained by y2=y2κ^′,ρ1,T , in which κ^′ is association number, ρ1 is solvent density (scCO2) and T is temperature.21 y2=RTρ1/MScFf^∙^κ^′-1expA2+B2/T in Eq. (21), R denotes universal constant of ideal gas, MScF is molecular weight of solvent, f^∗ is reference pressure and A2 and B2 are the Reformulated model constants.
The solute sublimation enthalpy is calculated with Bartle et al., model and it is stated as23 lny2P/Pref=A4+B4/T+C4ρ1-ρref where A4 to C4 are the model constants. Using the constant B4 , sublimation enthalpy is calculated (i.e., ΔsubH=-B4R ).
Solid–liquid model requires enthalpy of fusion, molar volume and melting point of the solute. Enthalpy of fusion is estimated with the help Jain et al.[77], and molar volume of the solute is estimated with the help Immirzi and Perini method. The calculated molar enthalpy and molar volumes are 65,208 J mol^−1 and 3.306 × 10^–4 m^3 mol^−1, respectively. The melting temperature is obtained from the material safety data sheet as 240 °C. From Chrastil's model constant ( B1 ), total enthalpy is calculated ( B1 × R). From Bartle’s model constant ( B4 ), sublimation enthalpy is calculated ( ΔsubH=-B4R ). From the magnitude difference between total and sublimation enthalpies, solvation enthalpy is calculated. Similarly, from reformulated Chrastil's model constant ( B2 ) and Bartle’s model constant ( B4 ), combination solvation enthalpy is calculated. […] This may be due to a smaller number of parameters in the models; on the other hand, the correlating ability of the solvate complex models is quite good. […]

In the case of CCN(CCO)CCCC(C)Nc1ccnc2cc(Cl)ccc12 (centres unmarked) [HCQS, Hydroxychloroquine sulfate], the “rise in solubility when temperature is raised from 308 to 338 K” value ([1]; 12 MPa) is reported as 4.6 folds, the “rise in solubility when temperature is raised from 308 to 338 K” value ([1]; 27 MPa) is reported as 3.8 folds and the solubility thermodynamic at 1 h ([1]; supercritical carbon dioxide (scCO2) in an equilibrium cell, scCO2, 308 K, 210 bar) is reported as 93.9 µg/mL. For the same compound, the solubility thermodynamic at 1 h ([1]; supercritical carbon dioxide (scCO2) in an equilibrium cell, scCO2, 308 K, 270 bar) was 132 µg/mL, the solubility thermodynamic at 1 h ([1]; supercritical carbon dioxide (scCO2) in an equilibrium cell, scCO2, 318 K, 120 bar) was 40.9 µg/mL and the solubility thermodynamic at 1 h ([1]; scCO2, 308 K, 150 bar) was 35 µg/mL. The solubility thermodynamic at 1 h ([1]; scCO2, 308 K, 180 bar) was 49.7 µg/mL, the solubility thermodynamic at 1 h ([1]; scCO2, 318 K, 150 bar) was 80.6 µg/mL and the solubility thermodynamic at 1 h ([1]; scCO2, 318 K, 210 bar) was 165 µg/mL. For the same compound, the solubility thermodynamic at 1 h ([1]; scCO2, 318 K, 240 bar) was 210 µg/mL, the solubility thermodynamic at 1 h ([1]; scCO2, 328 K, 120 bar) was 49.4 µg/mL and the solubility thermodynamic at 1 h ([1]; scCO2, 328 K, 150 bar) was 103 µg/mL. It also gave a solubility thermodynamic at 1 h ([1]; scCO2, 328 K, 210 bar) of 207 µg/mL, a solubility thermodynamic at 1 h ([1]; scCO2, 328 K, 270 bar) of 356 µg/mL and a solubility thermodynamic at 1 h ([1]; scCO2, 338 K, 120 bar) of 53.4 µg/mL. For the same compound, the solubility thermodynamic at 1 h ([1]; scCO2, 338 K, 150 bar) was 126 µg/mL, the solubility thermodynamic at 1 h ([1]; scCO2, 338 K, 180 bar) was 182 µg/mL and the solubility thermodynamic at 1 h ([1]; scCO2, 338 K, 210 bar) was 231 µg/mL. For the same compound, the solubility thermodynamic at 1 h ([1]; scCO2, 338 K, 240 bar) was 291 µg/mL, the solubility thermodynamic at 1 h ([1]; scCO2, 338 K, 270 bar) was 426 µg/mL and the “Enthalpy of sublimation ΔHsub” value ([2]; Bartle et al., model constant B4) was ~89.1^c (approximate value) kJ/mol. For the same compound, the “Total Enthalpy, ΔHtotal” value ([2]; Chrastil's model constant B1) was 69.80^a kJ/mol and the “Total Enthalpy, ΔHtotal” value ([2]; Modified Chrastil's model constant B2) was 62.00^b kJ/mol.
